From paper PMC2970562, “High-Affinity Inhibitors of Human NAD^+-Dependent 15-Hydroxyprostaglandin Dehydrogenase: Mechanisms of Inhibition and Structure-Activity Relationships” (PLoS ONE, 2010)
Read-outs that look alike come from different tables or passages of the source. One block for each compound: values may come before it.

How the values were obtained:
human 15-PGDH [1] = molecular target: T1, human 15-PGDH (Homo sapiens, UniProt P15428); assay: qHTS and 24-point re-test: fluorescence assay of NAD+ reduction to NADH on PGE2 oxidation (PubChem AID 894); format: biochemical
T1 construct: comprising residues 3–256 of the human HPGD gene (GenBank identifier: 1203982); His6 (GHHHHHH, behind the TEV site) (C, cleaved yes); made in house; host or cells: E. coli BL21(DE3)-R3
T1 sequence (P15428 3-256): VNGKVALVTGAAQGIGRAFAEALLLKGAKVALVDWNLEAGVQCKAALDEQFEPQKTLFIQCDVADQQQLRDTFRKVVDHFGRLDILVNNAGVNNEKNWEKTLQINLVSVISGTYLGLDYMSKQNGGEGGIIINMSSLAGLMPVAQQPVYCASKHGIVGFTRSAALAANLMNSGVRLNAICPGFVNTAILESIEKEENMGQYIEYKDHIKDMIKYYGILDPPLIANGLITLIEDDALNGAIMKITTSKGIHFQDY
Experimental: The assay was miniaturized to a 4-µL volume in 1536-well format: enzyme (3 µL) was dispensed first, followed by a pintool transfer of library compounds dissolved in DMSO. After equilibration, a substrate dispense (1 µL) initiated the enzymatic reaction (see Materials and Methods, for detailed protocol description). […] Hits associated with low-efficacy (<40% maximum inhibition), incomplete curves, as well as those displaying only a single-point inhibition at the top concentration tested were eliminated from further consideration. Similarly, the collection of real-time kinetic data allowed the autofluorescence of each compound to be evaluated by comparing the initial fluorescence read at top concentration with the mean value of uninhibited assay controls: compounds whose top-concentration initial well fluorescence exceeded six standard deviations over the mean were flagged as potential autofluorescent artifacts, [28] (see example in supplementary information Figure S1E). The complete screening and followup results are available in PubChem (PubChem Assay ID 894).
The enzymatic reaction was performed in 50 mM Tris-HCl pH 8.0, containing 0.01% Tween 20. […] The high-throughput screen was performed on a fully integrated robotic system (Kalypsys Inc, San Diego, CA) as described elsewhere. Library compounds, arrayed as seven-point inter-plate concentration series, were screened from the lowest (3.5 nM) to the highest (57.5 µM) concentration, with plates containing DMSO only, serving to note any systematic drifts in the signal, interspersed evenly throughout the screen (approximately every 50 plates). Briefly, 3 µL of reagents were dispensed into 1536-well Greiner black solid-bottom assay plates using integrated nanoliter solenoid-technology dispensers. Compounds and controls (23 nL) were transferred via Kalypsys pintool equipped with 1,536-pin array (10-nL slotted pins; V&P Scientific, Palo Alto, CA). After a 15-minute incubation (to allow for interaction between compound and enzyme), a 1-µL substrate addition step initiated the reaction. Kinetic data were collected on a ViewLux High-throughput CCD imager (Perkin-Elmer) equipped with standard UV fluorescence optics (exc. 340 nm, em. 450 nm).
Starting fluorescence intensity and the change in fluorescence over the two-minute initial rate period were recorded for every well. Screening data were normalized against no-enzyme (64 wells, columns 3 and 4) and no-compound (32 wells located in column 1) controls, and concentration-response relationships were derived as described previously. A four-parameter Hill equation [47] was fitted to the concentration-response data using publicly available algorithms (http://www.ncgc.nih.gov/pub/openhts/curvefit/).

human 15-PGDH [2] = molecular target: T1, human 15-PGDH; assay: Differential scanning fluorimetry (DSF), thermal stabilization; format: binding; details: for increase of stability by cofactor: versus ligand-free 15-PGDH
Experimental: A correlation between the ΔTm and the inhibitory potency has been shown in a number of protein-ligand systems, particularly for kinases [32]–[34].
Studies to assess the thermal stability of human 15-PGDH in presence of compounds were performed as described previously, with variations. Briefly, the protein was diluted to a final assay concentration of 1 µM in 100 mM Tris buffer pH 8.0, containing 0.01% Tween-20 and 1∶1000 SYPRO orange dye (Invitrogen). […] Compounds were added at a ratio of 1∶5 from appropriate stock solutions in 10% (v/v) DMSO to comprise either 50 or 250 µM final concentrations. Heat denaturation curves were recorded using a RT-PCR instrument (Mx3005p, Agilent) applying a temperature gradient of 2°C/min. […] 2.5 (ftp://ftp.sgc.ox.ac.uk/pub/biophysics) and PRISM 5.0 (GraphPad Software, Inc.).

human 15-PGDH [3] = molecular target: T1, human 15-PGDH; assay: Substrate (PGE2) and cofactor (NAD+) titrations, mechanism of action, global fitting; format: biochemical
Experimental: Kinetic studies were performed in 100 mM Tris buffer pH 8.0, containing 0.01% Tween-20 and 10 nM 15-PGDH enzyme. […] All inhibitor compounds were dissolved in 10% (v/v) DMSO at varying concentrations from which they were applied at 1∶5 ratio (resulting in a final concentration of 2% (v/v) DMSO in all assays). For each experiment an aliquot of purified enzyme was thawed freshly and pre-diluted to 10 µM in buffer I (5 mM Tris/HCl, pH 8.0, 150 mM NaCl, 0.01% Tween-20). All experiments were performed in white 384-well PCR microplates (Bio-Rad Laboratories, Inc.) in final assay volumes of 20 µL. Twelve-point compound titrations were set up from serially diluted stock solutions in 10% (v/v) DMSO. […] The initial rates recorded in compound titrations were plotted against -log[compound], and non-linear regression (Levenberg-Marquardt) fitting of the dose-response curve to the Hill equation [47] was performed to derive the IC50, using PRISM 5.0 (GraphPad Software, Inc.). For substrate/cofactor titrations, curves with initial rates plotted against the concentration of substrate or cofactor were fitted to the Michaelis-Menten equation, to derive maximal activities, V max, and Michaelis constants, K m. Fitting qualities were judged from the goodness of fit (R^2>0.98).

[4] = potency in 24-point titrations on re-test, 20 nM 15-PGDH, 1 mM NAD+, 30 µM PGE2, pH 8.0
[5] = potency in 24-point titrations on re-test, 20 nM 15-PGDH, 1 mM NAD+, 30 µM PGE2, pH 8.0, read-out: qHTS IC50
[6] = cofactor, absence of inhibitor, 30 µM PGE2
[7] = substrate, absence of inhibitor

SMILES: COc1ccc(N2CCN(C(=O)c3ccc(CSc4ccccc4)cc3)CC2)cc1 [Compound 6]
qHTS IC50 [nM] (human 15-PGDH [1]; [4]): Inactive
IC50 (human 15-PGDH [1]; re-test of qHTS hits, Figure 2, read-out: IC50 from re-testing): > 10000 nM

SMILES: CC(=O)Nc1ccc(NC(=O)CSc2nc3c(cc2C#N)CCC3)cc1 [Compound 10]
IC50 (human 15-PGDH [1]; [5]): 282 nM

SMILES: C=C[C@@]1(C)CCCC[C@H]1CC#CCCCC [Compound 15]
IC50 (human 15-PGDH [1]; [5]): 63 nM

SMILES: COc1ccc2ccccc2c1C=C1N=C(c2ccc(C)c(C)c2)OC1=O [Compound 19]
IC50 (human 15-PGDH [1]; [5]): 708 nM

SMILES: COC(=O)CN(C)C(=O)c1cc(Cl)c(OCC(C)C)c(OC)c1 [Compound 21]
IC50 (human 15-PGDH [1]; [5]): 398 nM

SMILES: CC1CCN(C(=O)CCc2ccc(Oc3cc([N+](=O)[O-])cc([N+](=O)[O-])c3)cc2)CC1 [Compound 22]
IC50 (human 15-PGDH [1]; [5]): 891 nM

SMILES: Fc1ccccc1-c1nnc(SCCc2ccncc2)n1C1CC1 [Compound 24]
qHTS IC50 [nM] (human 15-PGDH [1]; [4]): Inactive

SMILES: Cc1ccc(-c2nc3c4cnn(-c5cccc(Cl)c5)c4ncn3n2)cc1 [Compound 25]
IC50 (human 15-PGDH [1]; [5]): 12600 nM

SMILES: Cc1ccc(CN(c2ccc(C(=O)N3CCc4ccccc4C3)cc2)S(C)(=O)=O)cc1 [Compound 26]
IC50 (human 15-PGDH [1]; [5]): 11200 nM

SMILES: COc1ccc(OC)c(C=Cc2ccc(N3C(=O)C4CC=C5C(c6cc(Br)c(O)c(OC)c6)C6=C(CC5C4C3=O)C(=O)C=C(C)C6=O)cc2)c1 (centres unmarked) [Compound 27]
IC50 (human 15-PGDH [1]; [5]): 15800 nM

SMILES: COCCNC(=O)C1CSC(c2ccccc2)N1C(=O)c1ccc(OC)c(OC)c1 (centres unmarked) [Compound 28]
qHTS IC50 [nM] (human 15-PGDH [1]; [4]): inactive

The remaining lines, values ahead:

qHTS IC50 [nM] (human 15-PGDH [1]; [4]): inactive
SMILES: CCNC(=S)NN=Cc1cccn1-c1ccccc1 [Compound 33]

qHTS IC50 [nM] (human 15-PGDH [1]; [4]): Inactive
SMILES: Cc1c(Cl)cccc1NC(=O)CNC(=O)c1cncn1-c1ccc(F)cc1 [Compound 38]

qHTS IC50 [nM] (human 15-PGDH [1]; [4]): inactive
SMILES: CC(C)(C)c1ccc(C(=O)O/N=C(\N)c2ccc(Cl)cc2)cc1 [Compound 39]

IC50 (human 15-PGDH [1]; [5]): 1410 nM
SMILES: O=C(CSc1n[nH]c(-c2ccccc2)n1)Nc1ncc(Br)cc1Br [Compound 40]

IC50 (human 15-PGDH [1]; [5]): 5010 nM
SMILES: COc1ccc(NC(=O)c2sccc2S(=O)(=O)N2CCCCC2)c(OC)c1 [Compound 41]

IC50 (human 15-PGDH [1]; [5]): 398 nM
SMILES: O=C(C=Cc1ccco1)Nc1cc(Cl)c(O)c(Cl)c1 [Compound 43]

IC50 (human 15-PGDH [1]; [5]): 1000 nM
SMILES: Cc1ccc2nc(Cl)c(CO)cc2c1 [Compound 46]

IC50 (human 15-PGDH [1]; [5]): 159 nM
SMILES: Cc1ccccc1OCc1nnc(SCC(N)=O)o1 [Compound 47]

qHTS IC50 [nM] (human 15-PGDH [1]; [4]): Inactive
SMILES: Cc1ccc2nc(SCC(=O)N3CCCC[C@@H]3C)c(C#N)cc2c1 [Compound 49]

IC50 (human 15-PGDH [1]; [5]): 6310 nM
SMILES: O=C(O)c1cccc(Oc2cc(Cl)cc(Cl)c2)c1 [Compound 51]

IC50 (human 15-PGDH [1]; [5]): 14100 nM
SMILES: O=C(O)c1ccc(Cl)c(Cl)c1Br [Compound 52]

IC50 (human 15-PGDH [1]; [5]): 17800 nM
SMILES: O=C(NCCc1ccc(Cl)cc1)C1CCC(CNc2c(N3CCCCC3)c(=O)c2=O)CC1 (centres unmarked) [Compound 53]

IC50 (human 15-PGDH [1]; [5]): 15800 nM
SMILES: COC(=O)CSc1nc2cc(Br)c(C)nc2[nH]1 [Compound 58]

Tm of 15-PGDH in the presence of cofactor (human 15-PGDH [2]; pH 8.0, ligand-free Tm 41.2±0.3°C): 52.5±0.4 °C
increase of stability by cofactor (human 15-PGDH [2]; pH 8.0): more than 10 °C
SMILES: NC(=O)C1=CN([C@@H]2O[C@H](COP(=O)(O)OP(=O)(O)OC[C@H]3O[C@@H](n4cnc5c(N)ncnc54)[C@H](O)[C@@H]3O)[C@@H](O)[C@H]2O)C=CC1 [NADH, reference compound]

increase of stability by cofactor (human 15-PGDH [2]; pH 8.0): more than 4 °C
Titration of NAD^+ K m (human 15-PGDH [3]; [6]): 15.8 ± 0.9 µM
Titration of NAD^+ V max [µmol/(min×mg)] (human 15-PGDH [3]; [6]): 21.2 µmol/min/mg
Titration of NAD^+ k cat/K m[×10^6] (human 15-PGDH [3]; [6]): 0.7 ×10^6
Titration of NAD^+ k cat[1/sec] (human 15-PGDH [3]; [6]): 10.3 ± 0.1 s⁻¹
SMILES: NC(=O)c1ccc[n+]([C@@H]2O[C@H](COP(=O)([O-])OP(=O)(O)OC[C@H]3O[C@@H](n4cnc5c(N)ncnc54)[C@H](O)[C@@H]3O)[C@@H](O)[C@H]2O)c1 [NAD^+]

ΔTm in the presence of NAD+ (human 15-PGDH [2]): 2.4 °C
ΔTm in the presence of NADH (human 15-PGDH [2]): no stabilization
stabilization without cofactor (human 15-PGDH [2]; in words): failed to stabilize
catalytic efficiency, k cat/K m (human 15-PGDH [3]; PGE2, absence of inhibitor): 2.5·10^6
catalytic constant, k cat (human 15-PGDH [3]; oxidation of PGE2, absence of inhibitor): about 14 per second
Titration of PGE2 K m (human 15-PGDH [3]; [7]): 5.5 ± 0.6 µM
Titration of PGE2 V max[µmol/(min×mg)] (human 15-PGDH [3]; [7]): 28.1 µmol/min/mg
Titration of PGE2 k cat/K m[×10^6] (human 15-PGDH [3]; [7]): 2.5 ×10^6
Titration of PGE2 k cat[1/sec] (human 15-PGDH [3]; [7]): 13.6 ± 0.3 s⁻¹
SMILES: CCCCC[C@H](O)/C=C/[C@H]1[C@H](O)CC(=O)[C@@H]1C/C=C\CCCC(=O)O [PGE2, 15-hydroxyprostaglandin type-E2, reference compound]
